According to ChEMBL document CHEMBL4359850, “Synthesis, in vivo and in silico anticonvulsant activity studies of new derivatives of 2-(2,4-dioxo-1,4-dihydroquinazolin-3(2H)-yl)acetamide” (Eur J Med Chem, 2019):

How the values were obtained:
Mus musculus [1] = test: Anticonvulsive activity in pentylenetetrazole-induced seizure albino mouse model assessed as proportion of animals with tonic convulsion at 100 mg/kg, ig administered 30 mins prior to pentylenetetrazole challenge and mesured for 60 mins (reference value: 100%); type: functional
Mus musculus [2] = test: Anticonvulsive activity in pentylenetetrazole-induced seizure albino mouse model assessed as duration time of convulsion period at 100 mg/kg, ig administered 30 mins prior to pentylenetetrazole challenge and mesured for 60 mins (reference value: 12 +/- 1.34 min); type: functional
[3] = Toxicity in albino mouse assessed as motor coordination impairment by measuring animal fall-off from rod before 1 min at 100 mg/kg, ig administered 30 mins prior to test by rotarod test (reference value: 17%); type: organism-based; conditions: in vivo, po
Mus musculus [4] = test: Anticonvulsive activity in pentylenetetrazole-induced seizure albino mouse model assessed as lethality at 100 mg/kg, ig administered 30 mins prior to pentylenetetrazole challenge and mesured for 60 mins (reference value: 91.7%); type: functional
Mus musculus [5] = test: Anticonvulsive activity in pentylenetetrazole-induced seizure albino mouse model assessed as lifetime of animal to death at 100 mg/kg, ig administered 30 mins prior to pentylenetetrazole challenge and mesured for 60 mins (reference value: 17.45 +/- 1.85 min); type: functional
[6] = Toxicity in albino mouse assessed as motor coordination impairment by measuring animal fall-off from rod before 3 mins at 100 mg/kg, ig administered 30 mins prior to test by rotarod test (reference value: 33%); type: organism-based; conditions: in vivo, po, 0.05 h
[7] = Toxicity in albino mouse assessed as motor coordination impairment by measuring animal fall-off from rod before 5 mins at 100 mg/kg, ig administered 30 mins prior to test by rotarod test (reference value: 50%); type: organism-based; conditions: in vivo, po
[8] = Toxicity in albino mouse assessed as motor coordination impairment by measuring animal fall-off from rod before 2 mins at 100 mg/kg, ig administered 30 mins prior to test by rotarod test (reference value: 33%); type: organism-based; conditions: in vivo, po
Mus musculus [9] = test: Anticonvulsive activity in pentylenetetrazole-induced seizure albino mouse model assessed as number of clonic and tonic convulsion at 100 mg/kg, ig administered 30 mins prior to pentylenetetrazole challenge and mesured per animal for 60 mins (reference value: 3.58 +/- 0.42); type: functional
Mus musculus [10] = test: Anticonvulsive activity in pentylenetetrazole-induced seizure albino mouse model assessed as proportion of animals with clonic convulsion at 100 mg/kg, ig administered 30 mins prior to pentylenetetrazole challenge and mesured for 60 mins (reference value: 100 %); type: functional
Mus musculus [11] = test: Anticonvulsive activity in albino mouse assessed as protection against pentylenetetrazole-induced seizure by measuring severity of convulsion at 100 mg/kg, ig administered 30 mins prior to pentylenetetrazole challenge and mesured for 60 mins (reference value: 5.83 +/- 0.17); type: functional
Mus musculus [12] = test: Anticonvulsive activity in pentylenetetrazole-induced seizure albino mouse model assessed as latecy time at 100 mg/kg, ig administered 30 mins prior to pentylenetetrazole challenge and mesured for 60 mins (reference value: 5.79 +/- 0.58 min); type: functional
[13] = Acute toxicity in albino mouse assessed as effect on skeletal muscle tone at 1000 to 5000 mg/kg, ig measured for 14 days; type: organism-based; conditions: in vivo, po, 336 h
[14] = Acute toxicity in albino mouse assessed as blepharoptosis at 1000 to 5000 mg/kg, ig measured for 14 days; type: organism-based; conditions: in vivo, po, 336 h
Mus musculus [15] = test: Anticonvulsive activity in pentylenetetrazole-induced seizure albino mouse model assessed as decrease in duration of convulsive period at 100 mg/kg, ig administered 30 mins prior to pentylenetetrazole challenge and mesured for 60 mins relative to control; type: functional
[16] = Acute toxicity in albino mouse assessed as death at 1000 to 5000 mg/kg, ig measured for 14 days; type: organism-based; conditions: in vivo, po, 336 h
Mus musculus [17] = test: Anticonvulsive activity in pentylenetetrazole-induced seizure albino mouse model assessed as decrease in severity of convulsion at 100 mg/kg, ig administered 30 mins prior to pentylenetetrazole challenge and mesured for 60 mins relative to control; type: functional
[18] = Acute toxicity in albino mouse assessed as lateral position at 1000 to 5000 mg/kg, ig measured for 14 days; type: organism-based; conditions: in vivo, po, 336 h
[19] = Acute toxicity in albino mouse assessed as effect on muscle movement at 1000 to 5000 mg/kg, ig measured for 14 days; type: organism-based; conditions: in vivo, po, 336 h
[20] = Acute toxicity in albino mouse assessed as decrease in motor activity at 3000 to 5000 mg/kg, ig measured after 30 mins to 1 hr; type: organism-based; conditions: in vivo, po
[21] = Acute toxicity in ig dosed albino mouse measured for 14 days; type: organism-based; conditions: in vivo, po
[22] = Acute toxicity in albino mouse assessed as hypersalivation at 1000 to 5000 mg/kg, ig measured for 14 days; type: organism-based; conditions: in vivo, po, 336 h
Mus musculus [23] = test: Anticonvulsive activity in pentylenetetrazole-induced seizure albino mouse model assessed as lengthened latecy of convulsion at 100 mg/kg, ig administered 30 mins prior to pentylenetetrazole challenge and mesured for 60 mins relative to control; type: functional
[24] = Acute toxicity in albino mouse assessed as diarrhoea at 1000 to 5000 mg/kg, ig measured for 14 days; type: organism-based; conditions: in vivo, po, 336 h
Mus musculus [25] = test: Anticonvulsive activity in pentylenetetrazole-induced seizure albino mouse model assessed as decrease in time of death at 100 mg/kg, ig administered 30 mins prior to pentylenetetrazole challenge and mesured for 60 mins relative to control; type: functional
Mus musculus [26] = test: Anticonvulsive activity in albino mouse assessed as protection against pentylenetetrazole-induced seizure by measuring severity of convulsion at 300 mg/kg, ig administered 30 mins prior to pentylenetetrazole challenge and mesured for 60 mins (reference value: 5.83 +/- 0.17); type: functional
Mus musculus [27] = test: Anticonvulsive activity in pentylenetetrazole-induced seizure albino mouse model assessed as number of clonic and tonic convulsion at 300 mg/kg, ig administered 30 mins prior to pentylenetetrazole challenge and mesured per animal for 60 mins (reference value: 3.58 +/- 0.42); type: functional
[28] = Toxicity in albino mouse assessed as motor coordination impairment by measuring animal fall-off from rod before 3 mins at 300 mg/kg, ig administered 30 mins prior to test by rotarod test (reference value: 33%); type: organism-based; conditions: in vivo, po, 0.05 h
Mus musculus [29] = test: Anticonvulsive activity in pentylenetetrazole-induced seizure albino mouse model assessed as duration time of convulsion period at 300 mg/kg, ig administered 30 mins prior to pentylenetetrazole challenge and mesured for 60 mins (reference value: 12 +/- 1.34 min); type: functional
Mus musculus [30] = test: Anticonvulsive activity in pentylenetetrazole-induced seizure albino mouse model assessed as proportion of animals with tonic convulsion at 300 mg/kg, ig administered 30 mins prior to pentylenetetrazole challenge and mesured for 60 mins (reference value: 100%); type: functional
Mus musculus [31] = test: Anticonvulsive activity in pentylenetetrazole-induced seizure albino mouse model assessed as lifetime of animal to death at 300 mg/kg, ig administered 30 mins prior to pentylenetetrazole challenge and mesured for 60 mins (reference value: 17.45 +/- 1.85 min); type: functional
[32] = Toxicity in albino mouse assessed as motor coordination impairment by measuring animal fall-off from rod before 1 min at 300 mg/kg, ig administered 30 mins prior to test by rotarod test (reference value: 17%); type: organism-based; conditions: in vivo, po
Mus musculus [33] = test: Anticonvulsive activity in pentylenetetrazole-induced seizure albino mouse model assessed as latency time at 300 mg/kg, ig administered 30 mins prior to pentylenetetrazole challenge and mesured for 60 mins (reference value: 5.79 +/- 0.58 min); type: functional
[34] = Toxicity in albino mouse assessed as motor coordination impairment by measuring animal fall-off from rod before 5 mins at 300 mg/kg, ig administered 30 mins prior to test by rotarod test (reference value: 50%); type: organism-based; conditions: in vivo, po
Mus musculus [35] = test: Anticonvulsive activity in pentylenetetrazole-induced seizure albino mouse model assessed as lethality at 300 mg/kg, ig administered 30 mins prior to pentylenetetrazole challenge and mesured for 60 mins (reference value: 91.7%); type: functional
Mus musculus [36] = test: Anticonvulsive activity in pentylenetetrazole-induced seizure albino mouse model assessed as proportion of animals with clonic convulsion at 300 mg/kg, ig administered 30 mins prior to pentylenetetrazole challenge and mesured for 60 mins (reference value: 100 %); type: functional
[37] = Toxicity in albino mouse assessed as motor coordination impairment by measuring animal fall-off from rod before 2 mins at 300 mg/kg, ig administered 30 mins prior to test by rotarod test (reference value: 33%); type: organism-based; conditions: in vivo, po

Compound | Activity (Mus musculus [1]) [%] | Time (Mus musculus [2]) [min] | Activity [3] [%] | Activity (Mus musculus [4]) [%] | Time (Mus musculus [5]) [min] | Activity [6] [%] | Activity [7] [%] | Activity [8] [%] | Activity (Mus musculus [9]) | Activity (Mus musculus [10]) [%] | Activity (Mus musculus [11]) | Time (Mus musculus [12]) [min] | also measured
O=C(Cn1c(=O)[nH]c2ccccc2c1=O)NCc1ccccc1 | 100 | 14.05 | 17 | 80 | 17.5 | 50 | 50 | 33 | 3 | 100 | 5.6 | 4.96 | 
O=C(Cn1c(=O)[nH]c2ccccc2c1=O)NCCCc1ccccc1 | 80 | 3.05 | 17 | 40 | 12.16 | 50 | 50 | 33 | 1.2 | 80 | 4 | 15.51 | 
O=C(Cn1c(=O)[nH]c2ccccc2c1=O)NCc1ccc(Cl)cc1Cl | 40 | 0.45 | 17 | 0 |  | 50 | 67 | 50 | 1 | 80 | 2.8 | 20.38 | Activity [13]: Non-Toxic; Activity [14]: Non-Toxic; fold change (FC) (Mus musculus [15]): 26.7; Activity [16]: Non-Toxic; fold change (FC) (Mus musculus [17]): 2.1; Activity [18]: Non-Toxic; Activity [19]: Non-Toxic; Activity [20]: Toxic; LD50 at 336 h [21]: > 5000 mg/kg; Activity [22]: Non-Toxic; fold change (FC) (Mus musculus [23]): 3.5; Activity [24]: Non-Toxic
O=C(Cn1c(=O)[nH]c2ccccc2c1=O)NCCc1ccccc1 | 100 | 9.98 | 33 | 80 | 17.79 | 50 | 67 | 50 | 1.8 | 100 | 5.6 | 11.43 | 
O=C(Cn1c(=O)[nH]c2ccccc2c1=O)NC1CCCCC1 | 100 | 13.11 | 17 | 80 | 11.53 | 50 | 50 | 33 | 3.2 | 100 | 5.6 | 3.8 | 
COc1ccccc1CNC(=O)Cn1c(=O)[nH]c2ccccc2c1=O | 80 | 7.25 | 50 | 60 | 12.45 | 67 | 83 | 67 | 2.4 | 80 | 4.4 | 15.14 | 
O=C(Cn1c(=O)[nH]c2ccccc2c1=O)Nc1ccccc1 | 55.5 | 1.24 | 17 | 33.3 | 7.14 | 50 | 67 | 33 | 1.22 | 100 | 4.22 | 10.57 | 
C=CCNC(=O)Cn1c(=O)[nH]c2ccccc2c1=O | 80 | 9.8 | 33 | 60 | 16.95 | 50 | 67 | 50 | 2.2 | 100 | 5 | 6.6 | 
CCCNC(=O)Cn1c(=O)[nH]c2ccccc2c1=O | 100 | 2.2 | 33 | 40 | 6.89 | 50 | 50 | 50 | 1.4 | 100 | 5 | 7.5 | 
O=C(Cn1c(=O)[nH]c2ccccc2c1=O)NCc1ccc(Cl)cc1 | 100 | 4.54 | 50 |  | 9.36 | 67 | 83 | 67 | 2 | 100 | 6 | 4.82 | fold change (FC) (Mus musculus [25]): 1.9
CCCC(CCC)C(=O)[O-].[Na+] [VALPROATE SODIUM] |  |  |  |  |  |  |  |  |  |  |  |  | Activity (Mus musculus [26]): 2.83; Activity (Mus musculus [27]): 2; Activity [28]: 83%; Time (Mus musculus [29]): 7.64 min; Activity (Mus musculus [30]): 50%; Time (Mus musculus [31]): 20.9 min; Activity [32]: 50%; Time (Mus musculus [33]): 26.65 min; Activity [34]: 100%; Activity (Mus musculus [35]): 16.7%; Activity (Mus musculus [36]): 66.7%; Activity [37]: 67%
